Measured values taken from patent US20240254536A1, “[…] ARRAY AND USES THEREOF” (DrugArray, Inc., priority 2021, published 2024).

Test system: E. coli
Assay: pin array antibiotic susceptibility assay (zones of inhibition) on LB agar plates
Assay type: cell-based
Conditions: 7×7 pin array
Experimental: 1. Cell Introduction: E. coli resuspension were plated onto LB agar plates and incubated at 37° C. until the cells reach desired condition.
2. Pin array preparation: Two 7×7 pin arrays were loaded with ampicillin from 0.2 μg to 4 μg according to the configurations shown in FIGS. 5B and 6B, respectively.
(§1) 3. Treatment: After the cells reach the desired condition, the pin arrays loaded with ampicillin according to the configurations shown in FIGS. 5B and 6B were coupled to LB agar plates with E. coli culture. The LB agar plates were incubated at 37° C.
2. Pin array preparation: Two 7×7 pin arrays were loaded with ampicillin from 0.4 μg to 4 μg according to the configurations shown in FIGS. 7A and 7B, respectively.
as §1, with “7A” for “5B”, “7B” for “6B”, “37° C., and stored overnight at 4°” for “37°”, “C. and in Styrofoam box with ice packs, respectively.” for “C.”
2. Pin array preparation: A 7×7 pin array was loaded with ampicillin from 0.4 μg to 4 μg according to the configurations shown in FIG. 8A.
3. Treatment: After the cells reach the desired condition, the pin array loaded with ampicillin according to the configurations shown in FIG. 8A was coupled to an LB agar plate with E. coli culture. The LB agar plate was incubated at 37° C., and images of the plates were taken at the same day (FIG. 8A), and after 5 weeks at 4° C. (FIG. 8B).

`CC1(C)S[C@@H]2[C@H](NC(=O)[C@H](N)c3ccccc3)C(=O)N2[C@H]1C(=O)O` [ampicillin] was tested, and the zones of inhibition (ampicillin 0.2 μg to 4 μg, configuration of FIG. 5B, 37° C. (FIG. 5A)) was “well-defined, and a dose-dependent manner of the sizes of the zones”, the zones of inhibition (ampicillin 0.2 μg to 4 μg, configuration of FIG. 6B, 37° C. (FIG. 6A)) was “well-defined, dose-dependent zones of inhibition” and the zones of inhibition (ampicillin 0.4 μg to 4 μg, after 5 weeks of storage at 4° C. (FIG. 8B)) was “smaller zones of inhibition”. The zones of inhibition (ampicillin 0.4 μg to 4 μg, image taken the same day (FIG. 8A)) was “Well-defined, dose-dependent zones of inhibition”, the zones of inhibition (ampicillin 0.4 μg to 4 μg, stored overnight at 4° C. (FIG. 7A)) was “Well-defined, dose-dependent zones of inhibition” and the zones of inhibition (ampicillin 0.4 μg to 4 μg, stored overnight in Styrofoam box with ice packs (FIG. 7B)) was “Well-defined, dose-dependent zones of inhibition”.
